Measured values from ChEMBL document CHEMBL5653631, “A Potent and Selective ULK1 Inhibitor Suppresses Autophagy and Sensitizes Cancer Cells to Nutrient Stress” (iScience, 2018).

Tests used:
[1] = biological target: T1, cGMP-dependent protein kinase 2 (Homo sapiens) (UniProt Q13237); experiment: Inhibition of human recombinant PKG2 at 40 nM related to control ULK1
T1 sequence (whole entry): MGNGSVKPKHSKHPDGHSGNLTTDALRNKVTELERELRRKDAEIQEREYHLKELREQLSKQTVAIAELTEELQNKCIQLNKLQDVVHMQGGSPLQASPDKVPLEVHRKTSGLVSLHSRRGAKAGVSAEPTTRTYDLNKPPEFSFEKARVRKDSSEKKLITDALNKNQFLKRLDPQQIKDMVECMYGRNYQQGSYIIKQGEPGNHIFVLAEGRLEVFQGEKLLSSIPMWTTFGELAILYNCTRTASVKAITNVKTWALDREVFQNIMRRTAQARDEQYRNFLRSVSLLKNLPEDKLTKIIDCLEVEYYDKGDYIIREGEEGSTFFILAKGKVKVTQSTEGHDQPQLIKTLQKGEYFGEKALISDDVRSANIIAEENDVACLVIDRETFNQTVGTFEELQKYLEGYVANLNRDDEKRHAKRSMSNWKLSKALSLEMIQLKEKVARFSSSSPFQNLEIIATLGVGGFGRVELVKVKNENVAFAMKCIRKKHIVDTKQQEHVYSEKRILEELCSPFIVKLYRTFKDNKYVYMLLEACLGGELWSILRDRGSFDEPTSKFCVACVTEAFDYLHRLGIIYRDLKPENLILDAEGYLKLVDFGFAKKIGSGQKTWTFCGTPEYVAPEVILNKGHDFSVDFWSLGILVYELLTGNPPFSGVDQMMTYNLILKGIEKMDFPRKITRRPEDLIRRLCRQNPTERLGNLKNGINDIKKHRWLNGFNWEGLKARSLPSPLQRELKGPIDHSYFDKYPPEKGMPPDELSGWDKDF

[2] = biological target: Ephrin type-A receptor 7 (Homo sapiens) (UniProt Q15375); experiment: Inhibition of human recombinant EphA7 at 500 nM related to control ULK1
Sequence of Ephrin type-A receptor 7 (Homo sapiens) (Q15375 28-998 limits assumed): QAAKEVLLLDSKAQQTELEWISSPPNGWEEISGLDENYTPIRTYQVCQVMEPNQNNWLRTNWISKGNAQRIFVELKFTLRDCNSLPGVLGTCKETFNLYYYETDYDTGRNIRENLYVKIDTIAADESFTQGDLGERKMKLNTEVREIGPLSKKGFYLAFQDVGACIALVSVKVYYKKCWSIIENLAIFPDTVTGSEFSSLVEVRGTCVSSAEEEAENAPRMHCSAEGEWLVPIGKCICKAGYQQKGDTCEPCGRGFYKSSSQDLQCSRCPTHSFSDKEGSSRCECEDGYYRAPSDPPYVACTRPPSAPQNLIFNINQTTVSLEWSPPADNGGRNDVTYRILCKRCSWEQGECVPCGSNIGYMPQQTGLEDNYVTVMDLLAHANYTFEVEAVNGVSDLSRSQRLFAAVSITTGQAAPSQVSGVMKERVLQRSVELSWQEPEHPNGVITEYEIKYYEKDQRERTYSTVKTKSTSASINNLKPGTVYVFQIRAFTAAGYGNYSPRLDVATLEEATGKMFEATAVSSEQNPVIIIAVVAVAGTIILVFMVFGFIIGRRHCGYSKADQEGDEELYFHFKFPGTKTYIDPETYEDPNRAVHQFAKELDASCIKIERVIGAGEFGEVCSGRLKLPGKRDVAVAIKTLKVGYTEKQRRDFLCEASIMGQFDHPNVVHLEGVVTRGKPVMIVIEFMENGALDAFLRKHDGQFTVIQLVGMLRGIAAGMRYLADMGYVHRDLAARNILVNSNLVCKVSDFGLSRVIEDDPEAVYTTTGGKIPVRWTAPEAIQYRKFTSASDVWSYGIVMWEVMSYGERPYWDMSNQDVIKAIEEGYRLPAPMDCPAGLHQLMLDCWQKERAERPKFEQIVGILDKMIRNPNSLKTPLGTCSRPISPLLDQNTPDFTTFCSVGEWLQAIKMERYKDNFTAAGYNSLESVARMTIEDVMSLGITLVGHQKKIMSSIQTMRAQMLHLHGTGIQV

[3] = biological target: Homeodomain-interacting protein kinase 3 (Homo sapiens) (UniProt Q9H422); experiment: Inhibition of human recombinant HIPK3 at 500 nM in presence of ATP by radiometric assay relative to control
Sequence of Homeodomain-interacting protein kinase 3 (Homo sapiens) (Q9H422 whole entry, looked up): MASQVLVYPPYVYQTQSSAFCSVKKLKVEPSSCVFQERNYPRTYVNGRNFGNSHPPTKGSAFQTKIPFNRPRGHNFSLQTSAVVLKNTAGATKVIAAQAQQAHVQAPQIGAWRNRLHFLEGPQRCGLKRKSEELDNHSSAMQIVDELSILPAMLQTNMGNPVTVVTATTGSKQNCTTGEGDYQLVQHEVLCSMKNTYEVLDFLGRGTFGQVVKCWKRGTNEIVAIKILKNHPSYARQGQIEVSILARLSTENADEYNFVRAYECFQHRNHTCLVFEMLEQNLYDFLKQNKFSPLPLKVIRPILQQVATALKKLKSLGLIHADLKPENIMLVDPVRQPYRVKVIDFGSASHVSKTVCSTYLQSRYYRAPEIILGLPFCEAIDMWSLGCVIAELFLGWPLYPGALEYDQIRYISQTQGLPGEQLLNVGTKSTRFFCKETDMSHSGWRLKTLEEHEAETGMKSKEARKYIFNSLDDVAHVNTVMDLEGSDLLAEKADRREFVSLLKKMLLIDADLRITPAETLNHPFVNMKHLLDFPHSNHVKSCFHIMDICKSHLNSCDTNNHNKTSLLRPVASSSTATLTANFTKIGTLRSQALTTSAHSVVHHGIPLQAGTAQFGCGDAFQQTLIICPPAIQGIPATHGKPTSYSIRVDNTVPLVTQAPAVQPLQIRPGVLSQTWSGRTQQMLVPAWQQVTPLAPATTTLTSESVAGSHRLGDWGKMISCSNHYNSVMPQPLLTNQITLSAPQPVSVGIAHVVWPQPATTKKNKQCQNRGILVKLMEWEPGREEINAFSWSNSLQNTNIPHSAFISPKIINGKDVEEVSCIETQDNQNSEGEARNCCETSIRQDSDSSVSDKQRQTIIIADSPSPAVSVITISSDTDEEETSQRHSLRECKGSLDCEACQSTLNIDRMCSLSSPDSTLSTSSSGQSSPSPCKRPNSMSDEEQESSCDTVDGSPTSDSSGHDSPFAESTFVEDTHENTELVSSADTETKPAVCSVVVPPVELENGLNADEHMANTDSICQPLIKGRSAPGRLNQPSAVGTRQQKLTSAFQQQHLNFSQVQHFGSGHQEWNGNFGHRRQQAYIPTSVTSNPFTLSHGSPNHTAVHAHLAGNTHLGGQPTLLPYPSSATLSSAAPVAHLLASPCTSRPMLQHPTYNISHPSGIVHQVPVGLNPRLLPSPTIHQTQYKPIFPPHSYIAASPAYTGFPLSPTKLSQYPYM

[4] = biological target: Serine/threonine-protein kinase 26 (Homo sapiens) (UniProt Q9P289); experiment: Inhibition of human recombinant MST4 at 15 nM related to control ULK1
Sequence of Serine/threonine-protein kinase 26 (Homo sapiens) (Q9P289 2-416 limits assumed): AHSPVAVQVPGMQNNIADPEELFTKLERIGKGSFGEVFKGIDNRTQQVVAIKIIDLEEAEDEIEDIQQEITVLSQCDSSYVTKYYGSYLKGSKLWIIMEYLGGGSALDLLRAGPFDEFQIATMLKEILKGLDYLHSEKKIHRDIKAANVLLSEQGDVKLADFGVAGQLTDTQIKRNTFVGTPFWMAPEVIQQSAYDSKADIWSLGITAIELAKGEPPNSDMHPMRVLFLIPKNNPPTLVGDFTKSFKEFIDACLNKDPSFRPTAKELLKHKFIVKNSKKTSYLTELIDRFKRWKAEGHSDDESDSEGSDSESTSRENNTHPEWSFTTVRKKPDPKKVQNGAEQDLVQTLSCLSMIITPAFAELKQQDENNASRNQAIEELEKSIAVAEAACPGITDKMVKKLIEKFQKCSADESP

[5] = biological target: Tyrosine-protein kinase JAK2 (Homo sapiens) (UniProt O60674); experiment: Inhibition of human recombinant JAK2 at 15 nM related to control ULK1
Sequence of Tyrosine-protein kinase JAK2 (Homo sapiens) (O60674 whole entry): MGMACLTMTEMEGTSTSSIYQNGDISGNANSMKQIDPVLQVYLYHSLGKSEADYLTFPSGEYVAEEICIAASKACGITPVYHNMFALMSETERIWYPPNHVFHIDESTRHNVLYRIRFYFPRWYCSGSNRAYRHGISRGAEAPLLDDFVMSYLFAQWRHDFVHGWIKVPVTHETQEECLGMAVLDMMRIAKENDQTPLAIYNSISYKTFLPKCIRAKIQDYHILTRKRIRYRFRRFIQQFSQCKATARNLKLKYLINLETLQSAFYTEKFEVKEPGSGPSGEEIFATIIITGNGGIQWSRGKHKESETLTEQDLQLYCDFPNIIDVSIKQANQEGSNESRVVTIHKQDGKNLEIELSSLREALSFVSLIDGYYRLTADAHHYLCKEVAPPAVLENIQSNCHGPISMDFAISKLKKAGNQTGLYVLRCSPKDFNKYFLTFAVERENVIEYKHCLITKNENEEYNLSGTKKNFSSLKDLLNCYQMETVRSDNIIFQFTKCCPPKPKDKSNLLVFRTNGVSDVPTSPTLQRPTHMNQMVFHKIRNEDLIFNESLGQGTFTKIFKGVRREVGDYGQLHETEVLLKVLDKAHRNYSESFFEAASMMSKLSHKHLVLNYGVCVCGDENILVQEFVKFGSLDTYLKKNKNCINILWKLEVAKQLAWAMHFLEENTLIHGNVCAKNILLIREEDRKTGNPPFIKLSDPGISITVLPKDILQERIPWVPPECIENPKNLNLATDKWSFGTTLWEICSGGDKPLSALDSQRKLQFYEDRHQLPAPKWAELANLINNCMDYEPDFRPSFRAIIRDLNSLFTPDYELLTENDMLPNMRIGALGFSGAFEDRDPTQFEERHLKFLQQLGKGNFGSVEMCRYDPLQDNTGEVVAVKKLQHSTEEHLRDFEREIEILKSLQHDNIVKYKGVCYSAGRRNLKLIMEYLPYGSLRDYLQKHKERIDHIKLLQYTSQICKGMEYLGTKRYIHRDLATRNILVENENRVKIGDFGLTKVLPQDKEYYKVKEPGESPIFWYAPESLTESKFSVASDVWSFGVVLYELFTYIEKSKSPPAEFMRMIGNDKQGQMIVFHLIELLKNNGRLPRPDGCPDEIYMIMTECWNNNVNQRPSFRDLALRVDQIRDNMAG

[6] = biological target: T2, Ephrin type-B receptor 3 (Homo sapiens) (UniProt P54753); experiment: Inhibition of human recombinant EphB3 at 15 nM related to control ULK1
T2 sequence (whole entry): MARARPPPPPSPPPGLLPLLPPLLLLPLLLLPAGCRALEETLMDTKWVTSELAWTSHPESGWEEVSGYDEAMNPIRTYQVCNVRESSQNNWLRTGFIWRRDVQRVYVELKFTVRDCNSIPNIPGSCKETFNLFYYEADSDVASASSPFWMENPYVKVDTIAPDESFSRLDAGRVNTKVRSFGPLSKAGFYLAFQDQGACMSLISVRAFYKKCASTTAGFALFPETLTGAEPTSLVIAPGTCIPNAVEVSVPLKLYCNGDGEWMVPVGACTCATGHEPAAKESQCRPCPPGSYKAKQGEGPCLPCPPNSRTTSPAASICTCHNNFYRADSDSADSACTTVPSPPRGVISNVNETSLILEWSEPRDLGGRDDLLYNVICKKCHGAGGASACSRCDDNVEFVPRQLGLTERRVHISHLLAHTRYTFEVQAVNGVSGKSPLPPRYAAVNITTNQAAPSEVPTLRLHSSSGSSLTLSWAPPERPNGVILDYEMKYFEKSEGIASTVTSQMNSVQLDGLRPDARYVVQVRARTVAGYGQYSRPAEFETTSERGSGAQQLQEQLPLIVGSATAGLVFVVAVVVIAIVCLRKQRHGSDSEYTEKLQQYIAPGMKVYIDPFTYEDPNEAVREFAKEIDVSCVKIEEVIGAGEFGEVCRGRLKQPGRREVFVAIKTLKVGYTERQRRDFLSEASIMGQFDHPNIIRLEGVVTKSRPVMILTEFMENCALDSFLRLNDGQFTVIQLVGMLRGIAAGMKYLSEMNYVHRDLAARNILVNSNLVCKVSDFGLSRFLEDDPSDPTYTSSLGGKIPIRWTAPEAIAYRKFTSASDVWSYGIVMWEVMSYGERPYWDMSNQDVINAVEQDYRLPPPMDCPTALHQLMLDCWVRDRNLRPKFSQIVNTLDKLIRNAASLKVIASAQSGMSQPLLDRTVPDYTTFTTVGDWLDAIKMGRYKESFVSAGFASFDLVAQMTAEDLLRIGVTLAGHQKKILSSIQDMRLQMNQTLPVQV

[7] = biological target: Death-associated protein kinase 3 (Homo sapiens) (UniProt O43293); experiment: Inhibition of human recombinant DAPK3 at 15 nM in presence of ATP by radiometric assay relative to control
Sequence of Death-associated protein kinase 3 (Homo sapiens) (O43293 whole entry, looked up): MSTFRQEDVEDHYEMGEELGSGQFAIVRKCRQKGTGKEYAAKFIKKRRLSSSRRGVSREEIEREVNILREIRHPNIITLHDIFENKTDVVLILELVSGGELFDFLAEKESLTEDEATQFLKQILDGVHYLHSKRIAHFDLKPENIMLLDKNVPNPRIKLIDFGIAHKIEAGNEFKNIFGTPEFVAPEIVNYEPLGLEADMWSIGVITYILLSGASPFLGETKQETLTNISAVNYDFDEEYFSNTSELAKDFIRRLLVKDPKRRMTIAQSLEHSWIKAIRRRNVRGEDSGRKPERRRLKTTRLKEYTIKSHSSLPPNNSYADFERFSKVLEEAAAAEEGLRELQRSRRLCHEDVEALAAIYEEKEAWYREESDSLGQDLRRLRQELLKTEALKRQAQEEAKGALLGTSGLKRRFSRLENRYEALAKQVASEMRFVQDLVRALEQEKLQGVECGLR

[8] = biological target: G protein-coupled receptor kinase 6 (Homo sapiens) (UniProt P43250); experiment: Inhibition of human recombinant GPRK6 at 15 nM related to control ULK1
Sequence of G protein-coupled receptor kinase 6 (Homo sapiens) (P43250 whole entry, looked up): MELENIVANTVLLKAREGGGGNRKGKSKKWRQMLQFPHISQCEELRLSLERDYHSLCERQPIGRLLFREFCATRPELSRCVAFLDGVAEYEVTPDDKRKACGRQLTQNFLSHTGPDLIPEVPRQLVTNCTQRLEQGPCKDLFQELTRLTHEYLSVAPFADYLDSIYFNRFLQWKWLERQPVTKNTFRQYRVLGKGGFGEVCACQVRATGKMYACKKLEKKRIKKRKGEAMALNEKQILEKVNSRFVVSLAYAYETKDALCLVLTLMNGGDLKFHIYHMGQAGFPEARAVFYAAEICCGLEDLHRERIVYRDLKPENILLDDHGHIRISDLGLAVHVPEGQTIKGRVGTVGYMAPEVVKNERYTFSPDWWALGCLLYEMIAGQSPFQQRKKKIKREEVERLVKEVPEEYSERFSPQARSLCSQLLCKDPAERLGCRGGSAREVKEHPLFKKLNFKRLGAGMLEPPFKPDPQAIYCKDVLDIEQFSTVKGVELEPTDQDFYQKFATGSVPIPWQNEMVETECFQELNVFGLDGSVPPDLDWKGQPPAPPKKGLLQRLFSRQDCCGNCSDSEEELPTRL

[9] = biological target: T3, Myotonin-protein kinase (Homo sapiens) (UniProt Q09013); experiment: Inhibition of human recombinant DMPK1 at 15 nM related to control ULK1
T3 sequence (whole entry): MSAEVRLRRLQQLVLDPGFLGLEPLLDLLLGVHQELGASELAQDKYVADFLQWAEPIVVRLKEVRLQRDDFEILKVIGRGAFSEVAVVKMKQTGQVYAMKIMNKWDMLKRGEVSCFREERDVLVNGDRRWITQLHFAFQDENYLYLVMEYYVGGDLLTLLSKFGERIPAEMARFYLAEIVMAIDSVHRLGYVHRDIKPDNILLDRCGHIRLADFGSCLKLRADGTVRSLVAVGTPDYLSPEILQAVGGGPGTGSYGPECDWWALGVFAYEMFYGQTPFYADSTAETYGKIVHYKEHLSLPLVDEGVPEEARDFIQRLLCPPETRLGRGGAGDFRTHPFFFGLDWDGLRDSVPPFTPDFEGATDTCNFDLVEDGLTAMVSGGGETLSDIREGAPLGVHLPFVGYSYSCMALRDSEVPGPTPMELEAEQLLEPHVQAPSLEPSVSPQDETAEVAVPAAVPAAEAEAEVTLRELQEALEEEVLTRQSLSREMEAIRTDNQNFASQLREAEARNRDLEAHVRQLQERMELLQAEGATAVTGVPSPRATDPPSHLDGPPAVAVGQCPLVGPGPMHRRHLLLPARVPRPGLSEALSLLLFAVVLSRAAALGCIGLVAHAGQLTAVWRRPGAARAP

O=C(N[C@@H](C1CC1)C(F)(F)F)c1cc(-c2cnn3cc(-c4ccc(F)cc4)cnc23)cs1
fold change (FC) [1]: 0.01

CNC(=O)c1ccccc1Oc1nc(Nc2cc(OC)c(OC)c(OC)c2)ncc1Br
fold change (FC) [2]: 0 | inhibition [3]: 6%

CC(C)[C@H](NC(=O)c1cc(-c2cnn3cc(-c4ccc(OCCN5CCCCC5)cc4)cnc23)cs1)C(F)(F)F
fold change (FC) [4]: 0 | fold change (FC) [5]: 0.07 | fold change (FC) [6]: 0 | inhibition [7]: 0% | fold change (FC) [8]: 0 | fold change (FC) [9]: 0
